According to patent US9187484B2 (Southern Research Institute, priority 2012, dated 2015):

biological target: T1, LRRK2 (G2019S) (Homo sapiens, UniProt Q5S007, G2019S); assay: LRRK2 inhibition, radiometric kinase assay with recombinant GST-LRRK2 (delta970) and peptide substrate; assay type: biochemical; settings: GST-LRRK2 (delta970) G2019S 30 nM, ATP ~52 μM (Km), 30 min at 30° C.
T1 construct: Recombinant GST-LRRK2 (delta970), purified from baculovirus infected insect cells (SF9); GST (N); host or cells: baculovirus infected insect cells (SF9)
Protocol: Compounds were assessed for inhibition of LRRK2 inhibition using the following procedure.
Recombinant GST-LRRK2 (delta970), purified from baculovirus infected insect cells (SF9), at least 90% pure and either wild-type sequence or bearing the pathogenic G2019S mutation, was combined into a kinase buffer at 30 nM concentration. Kinase buffer consists of 50 mM Tris HCl pH 7.4, 1 mM EDTA, and 50 μM peptide substrate (amino acid sequence […]). Experimental compounds or control (no compound) were added at desired concentrations in DMSO and water, where final concentration of DMSO in kinase reactions was 0.1% for all drug concentrations. Activation buffer that consists of a final concentration in the reactions of 10 mM MgCl2 and ATP (˜92 μM for WT-LRRK2 reactions and ˜52 μM for G2019S-LRRK2, which represent respective Km ATP concentrations) were added to each reaction, in addition to 0.5 μCi of gamma-32-P-dATP per reaction. Reactions were incubated at 1400 RPM at 30° C. for 30 min. and then spotted in triplicate directly onto a slot-blot apparatus fitted with phospho-cellulose paper and allowed to dry. Each slot was then washed with 10 mM phosphoric acid buffer until beta-radiation could not be detected in eluted wash buffer, usually ˜1 mL per slot. Paper within each slot were excised and radiation measured by liquid scintillation.

T1 sequence (Q5S007 970-2527 G2019S limits assumed): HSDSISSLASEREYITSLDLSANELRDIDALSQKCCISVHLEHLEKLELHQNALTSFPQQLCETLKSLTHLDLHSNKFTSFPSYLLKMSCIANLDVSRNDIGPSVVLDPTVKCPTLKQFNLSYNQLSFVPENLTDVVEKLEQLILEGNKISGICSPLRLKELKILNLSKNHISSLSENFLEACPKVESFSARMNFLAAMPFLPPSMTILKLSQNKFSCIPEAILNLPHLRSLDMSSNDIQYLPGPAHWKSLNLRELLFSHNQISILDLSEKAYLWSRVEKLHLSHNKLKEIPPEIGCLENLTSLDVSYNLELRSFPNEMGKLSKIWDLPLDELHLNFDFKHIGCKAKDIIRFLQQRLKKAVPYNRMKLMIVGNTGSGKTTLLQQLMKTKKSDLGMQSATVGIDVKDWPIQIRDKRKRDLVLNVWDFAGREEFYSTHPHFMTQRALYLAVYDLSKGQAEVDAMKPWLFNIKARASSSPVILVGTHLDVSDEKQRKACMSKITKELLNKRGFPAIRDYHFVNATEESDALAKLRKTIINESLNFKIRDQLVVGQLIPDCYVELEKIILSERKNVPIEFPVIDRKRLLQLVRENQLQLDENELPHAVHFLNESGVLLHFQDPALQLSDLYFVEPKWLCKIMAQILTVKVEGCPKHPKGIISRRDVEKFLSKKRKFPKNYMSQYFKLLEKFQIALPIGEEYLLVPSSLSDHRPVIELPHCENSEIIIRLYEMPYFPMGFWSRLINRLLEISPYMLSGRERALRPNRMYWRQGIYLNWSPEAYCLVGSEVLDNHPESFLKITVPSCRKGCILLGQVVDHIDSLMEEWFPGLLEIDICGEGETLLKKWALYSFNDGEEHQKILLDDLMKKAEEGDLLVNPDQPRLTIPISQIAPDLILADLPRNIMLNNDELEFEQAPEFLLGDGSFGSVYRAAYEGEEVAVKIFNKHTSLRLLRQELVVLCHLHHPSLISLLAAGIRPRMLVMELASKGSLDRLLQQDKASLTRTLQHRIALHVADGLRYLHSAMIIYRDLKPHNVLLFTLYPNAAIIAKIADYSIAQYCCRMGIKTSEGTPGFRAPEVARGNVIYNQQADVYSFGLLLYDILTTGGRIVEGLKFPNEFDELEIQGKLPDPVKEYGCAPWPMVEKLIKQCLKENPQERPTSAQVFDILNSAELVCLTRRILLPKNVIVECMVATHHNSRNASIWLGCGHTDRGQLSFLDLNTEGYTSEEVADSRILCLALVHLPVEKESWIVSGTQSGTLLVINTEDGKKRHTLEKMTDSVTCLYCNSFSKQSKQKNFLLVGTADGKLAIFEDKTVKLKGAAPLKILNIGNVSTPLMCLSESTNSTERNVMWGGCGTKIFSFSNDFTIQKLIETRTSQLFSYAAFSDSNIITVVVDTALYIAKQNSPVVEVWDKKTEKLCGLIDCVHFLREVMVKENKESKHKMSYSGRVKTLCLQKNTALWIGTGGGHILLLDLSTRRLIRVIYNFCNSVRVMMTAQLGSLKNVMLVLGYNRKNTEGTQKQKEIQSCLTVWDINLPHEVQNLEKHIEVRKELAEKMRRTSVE

Structure (SMILES) | IC50 [nM]
CCOC(=O)C(CC)Sc1ccc2nnc(-c3ccc(F)cc3)n2n1 (centres unmarked) [Example 1, ethyl 2-((3-(4-fluorophenyl)-[1,2,4]triazolo[4,3-b]pyridazin-6-yl)thio)butanoate] | ≥ 5000
CCOC(=O)CSc1ccc2nnc(-c3ccncc3)n2n1 [Example 2, ethyl 2-((3-(pyridin-4-yl)-[1,2,4]triazolo[4,3-b]pyridazin-6-yl)thio)acetate] | ≥ 5000
NC(=O)CSc1ccc2nnc(-c3cccs3)n2n1 [Example 3, 2-((3-(thiophen-2-yl)-[1,2,4]triazolo[4,3-b]pyridazin-6-yl)thio)acetamide] | 100 to 1000
NC(=O)CSc1ccc2nnc(-c3ccncc3)n2n1 [Example 4, 2-((3-(pyridin-4-yl)-[1,2,4]triazolo[4,3-b]pyridazin-6-yl)thio)acetamide] | ≥ 5000
NC(=O)CSc1ccc2nnc(-c3ccsc3)n2n1 [Example 5, 2-((3-(thiophen-3-yl)-[1,2,4]triazolo[4,3-b]pyridazin-6-yl)thio)acetamide] | 100 to 1000
CCC(Sc1ccc2nnc(-c3ccc(F)cc3)n2n1)C(=O)O (centres unmarked) [Example 6, 2-((3-(4-fluorophenyl)-[1,2,4]triazolo[4,3-b]pyridazin-6-yl)thio)butanoic acid] | 100 to 1000
CCC(Sc1ccc2nnc(-c3ccc(F)cc3)n2n1)C(=O)Nc1nccs1 (centres unmarked) [Example 7, 2-((3-(4-fluorophenyl)-[1,2,4]triazolo[4,3-b]pyridazin-6-yl)thio)-N-(thiazol-2-yl)butanamide] | ≥ 5000
CCC(Sc1ccc2nnc(-c3ccc(F)cc3)n2n1)C(=O)N1CCCC1 (centres unmarked) [Example 8, 2-((3-(4-fluorophenyl)-[1,2,4]triazolo[4,3-b]pyridazin-6-yl)thio)-1-(pyrrolidin-1-yl)butan-1-one] | 100 to 1000
CCC(Sc1ccc2nnc(-c3ccc(F)cc3)n2n1)C(=O)N1CCCCC1 (centres unmarked) [Example 9, 2-((3-(4-fluorophenyl)-[1,2,4]triazolo[4,3-b]pyridazin-6-yl)thio)-1-(piperidin-1-yl)butan-1-one] | 1000 to 5000
NC(=O)CSc1ccc2nnc(C3CCCCC3)n2n1 [Example 10, 2-((3-cyclohexyl-[1,2,4]triazolo[4,3-b]pyridazin-6-yl)thio)acetamide] | ≥ 5000
O=C(CSc1ccc2nnc(-c3cccs3)n2n1)N1CCCCC1 [Example 11, 1-(piperidin-1-yl)-2-((3-(thiophen-2-yl)-[1,2,4]triazolo[4,3-b]pyridazin-6-yl)thio)ethanone] | 100 to 1000
CCC(Sc1ccc2nnc(-c3ccc(F)cc3)n2n1)C(=O)Nc1cnc2ccccc2c1 (centres unmarked) [Example 12] | ≥ 5000
Cc1ccc(-c2nnc3ccc(SCC(=O)O)nn23)cc1 [Example 13, 2-((3-(p-tolyl)-[1,2,4]triazolo[4,3-b]pyridazin-6-yl)thio)acetic acid] | 1000 to 5000
CCC(Sc1ccc2nnc(-c3ccc(F)cc3)n2n1)C(=O)Nc1ccccc1C(F)(F)F (centres unmarked) [Example 14, 2-((3-(4-fluorophenyl)-[1,2,4]triazolo[4,3-b]pyridazin-6-yl)thio)-N-(2-(trifluoromethyl)phenyl)butanamide] | ≥ 5000
NC(=O)CSc1ccc2nnc(C3CCCC3)n2n1 [Example 15, 2-((3-cyclopentyl-[1,2,4]triazolo[4,3-b]pyridazin-6-yl)thio)acetamide] | 1000 to 5000
NC(=O)CSc1ccc2nnc(-c3ccccn3)n2n1 [Example 16, 2-((3-(pyridin-2-yl)-[1,2,4]triazolo[4,3-b]pyridazin-6-yl)thio)acetamide] | ≥ 5000
O=C(O)CSc1ccc2nnc(-c3ccc(F)cc3)n2n1 [Example 17, 2-((3-(4-fluorophenyl)-[1,2,4]triazolo[4,3-b]pyridazin-6-yl)thio)acetic acid] | ≥ 5000
CCC(Sc1ccc2nnc(-c3cccs3)n2n1)C(=O)O (centres unmarked) [Example 18, 2-((3-(thiophen-2-yl)-[1,2,4]triazolo[4,3-b]pyridazin-6-yl)thio)butanoic acid] | 100 to 1000
NC(=O)CSc1ccc2nnc(-c3ccc(F)cc3)n2n1 [Example 19, 2-((3-(4-fluorophenyl)-[1,2,4]triazolo[4,3-b]pyridazin-6-yl)thio)acetamide] | 1000 to 5000
c1csc(-c2nnc3ccc(N4CCCCC4)nn23)c1 [Example 20, 6-(piperidin-1-yl)-3-(thiophen-2-yl)-[1,2,4]triazolo[4,3-b]pyridazine] | ≥ 5000
O=C(CSc1ccc2nnc(-c3cccs3)n2n1)N1CCCC1 [Example 21, 1-(pyrrolidin-1-yl)-2-((3-(thiophen-2-yl)-[1,2,4]triazolo[4,3-b]pyridazin-6-yl)thio)ethanone] | 100 to 1000

Structure (SMILES) | IC50 [nM]
O=C(CSc1ccc2nnc(-c3cccs3)n2n1)Nc1nccs1 [Example 23, N-(thiazol-2-yl)-2-((3-(thiophen-2-yl)-[1,2,4]triazolo[4,3-b]pyridazin-6-yl)thio)acetamide] | 100 to 1000
O=C(CSc1ccc2nnc(-c3cccs3)n2n1)N1CCOCC1 [Example 24, 1-morpholino-2-((3-(thiophen-2-yl)-[1,2,4]triazolo[4,3-b]pyridazin-6-yl)thio)ethanone] | 100 to 1000
Cc1ccc(-c2nnc3ccc(SCC(=O)N4CCCC4)nn23)cc1 [Example 25, 1-(pyrrolidin-1-yl)-2-((3-(p-tolyl)-[1,2,4]triazolo[4,3-b]pyridazin-6-yl)thio)ethanone] | 1000 to 5000
NC(=O)CSc1ccc2nnc(-c3ccco3)n2n1 [Example 26, 2-((3-(furan-2-yl)-[1,2,4]triazolo[4,3-b]pyridazin-6-yl)thio)acetamide] | 100 to 1000
O=C(O)CSc1ccc2nnc(-c3cccs3)n2n1 [Example 27, 2-((3-(thiophen-2-yl)-[1,2,4]triazolo[4,3-b]pyridazin-6-yl)thio)acetic acid] | ≥ 5000
O=C(O)CSc1ccc2nnc(-c3ccco3)n2n1 [Example 28, 2-((3-(furan-2-yl)-[1,2,4]triazolo[4,3-b]pyridazin-6-yl)thio)acetic acid] | ≥ 5000
NC(=O)CSc1ccc2nnc(-c3cc4ccccc4s3)n2n1 [Example 29, 2-((3-(benzo[b]thiophen-2-yl)-[1,2,4]triazolo[4,3-b]pyridazin-6-yl)thio)acetamide] | ≥ 5000
O=C(O)CSc1ccc2nnc(-c3cc4ccccc4s3)n2n1 [Example 30, 2-((3-(benzo[b]thiophen-2-yl)-[1,2,4]triazolo[4,3-b]pyridazin-6-yl)thio)acetic acid] | ≥ 5000
O=C(O)CSc1ccc2nnc(-c3cc4ccccc4o3)n2n1 [Example 31, 2-((3-(benzofuran-2-yl)-[1,2,4]triazolo[4,3-b]pyridazin-6-yl)thio)acetic acid] | ≥ 5000
NC(=O)CSc1ccc2nnc(-c3cc4ccccc4o3)n2n1 [Example 32, 2-((3-(benzofuran-2-yl)-[1,2,4]triazolo[4,3-b]pyridazin-6-yl)thio)acetamide] | ≥ 5000
CCC(Sc1ccc2nnc(-c3nccs3)n2n1)C(=O)O (centres unmarked) [Example 33, 2-((3-(thiazol-2-yl)-[1,2,4]triazolo[4,3-b]pyridazin-6-yl)thio)butanoic acid] | 100 to 1000
NC(=O)CSc1ccc2nnc(-c3csc4ccccc34)n2n1 [Example 35, 2-((3-(benzo[b]thiophen-3-yl)-[1,2,4]triazolo[4,3-b]pyridazin-6-yl)thio)acetamide] | 1000 to 5000
CC(Sc1ccc2nnc(-c3cccs3)n2n1)C(=O)O (centres unmarked) [Example 36, 2-((3-(thiophen-2-yl)-[1,2,4]triazolo[4,3-b]pyridazin-6-yl)thio)propanoic acid] | 100 to 1000
NC(=O)CSc1ccc2nnc(-c3nccs3)n2n1 [Example 37, 2-((3-(thiazol-2-yl)-[1,2,4]triazolo[4,3-b]pyridazin-6-yl)thio)acetamide] | ≥ 5000
O=C(O)CSc1ccc2nnc(-c3csc4ccccc34)n2n1 [Example 38, 2-((3-(benzo[b]thiophen-3-yl)-[1,2,4]triazolo[4,3-b]pyridazin-6-yl)thio)acetic acid] | ≥ 5000
Cc1scc(-c2nnc3ccc(SCC(=O)O)nn23)c1-c1ccccc1 [Example 39, 2-((3-(5-methyl-4-phenylthiophen-3-yl)-[1,2,4]triazolo[4,3-b]pyridazin-6-yl)thio)acetic acid] | ≥ 5000
Cc1scc(-c2nnc3ccc(SCC(N)=O)nn23)c1-c1ccccc1 [Example 40, 2-((3-(5-methyl-4-phenylthiophen-3-yl)-[1,2,4]triazolo[4,3-b]pyridazin-6-yl)thio)acetamide] | ≥ 5000
CCCCC(Sc1ccc2nnc(-c3cccs3)n2n1)C(=O)O (centres unmarked) [Example 41, 2-((3-(thiophen-2-yl)-[1,2,4]triazolo[4,3-b]pyridazin-6-yl)thio)hexanoic acid] | 1000 to 5000
O=C(O)CSc1ccc2nnc(-c3nccs3)n2n1 [Example 42, 2-((3-(thiazol-2-yl)-[1,2,4]triazolo[4,3-b]pyridazin-6-yl)thio)acetic acid] | ≥ 5000
O=C(CSc1ccc2nnc(-c3ccc(F)cc3)n2n1)Nc1nccs1 [Example 43, 2-((3-(4-fluorophenyl)-[1,2,4]triazolo[4,3-b]pyridazin-6-yl)thio)-N-(thiazol-2-yl)acetamide] | ≥ 5000
